Literature values as cited in patent US20170101678A1, “METHOD FOR SCREENING RISK OF DRUG-INDUCED TOXICITY” (RESEARCH CENTER FOR BIOTECHNOLOGY AND MEDICINE POLICY, priority 2014, published 2017).
Like-named read-outs stand apart in the source and are kept apart here.

Conditions: patients treated with INH

For `NNC(=O)c1ccncc1` [INH, Isoniazid], the “patients developing hepatitis or increased liver readings” value (CYP2E1 1A/1A genotype) is given as 39% and the “patients developing hepatitis or increased liver readings” value (CYP2E1 1A/1B genotype) is given as 15%.
